Earlier results on three compounds are cited in patent US5849696A, “Composition and method of treating hepatitis C” (The Board of Governors of Wayne State University, priority 1993, dated 1998).

The test system of data set [1] is HCV. The settings on record: in vivo.
Data set [2] deals with natural killer-cell activity. The conditions noted are these: THNα1 together with interferon, immunosuppressed mice.
Data set [3] relates to human lymphocytes.
Data set [4] deals with influenza vaccine.
Data set [5] deals with Woodchuck Hepatitis Virus. The settings on record: woodchuck infected with Woodchuck Hepatitis Virus.
Data set [6] deals with hepatitis B virus (HBV). The settings on record: treated for a year.
The test system of data set [7] is nonsmall cell lung cancer.
Data set [8] relates to chronic HCV infection.
Data set [9] has as its system chronic hepatitis C (NANB hepatitis).
Data set [10] relates to chronic NANB hepatitis.

Like-named read-outs stand apart in the source and are kept apart here. Where no end group is shown, it is not given here.

As to `Nc1nc2c(ncn2COCCO)c(=O)[nH]1` [acyclovir], the “effect on HCV-related diseases” value in data set [1] was “ineffective”.

For “Thymosin α-1 (SDAAVDTSSEITTKDLKEKKEVVEEAEN; ends and bridges not checked; UniProt P06454 2-29, looked up) [THNα1]”, the “effect on natural killer-cell activity” value in data set [2] was “synergistic effect”. In addition, in data set [3], the interleukin-2 receptor expression entry is recorded as “increase”; the “production of interferon-α, interferon-γ and interleukin-2” value was “promote production”. Also, the “clinical or biochemical toxicity” value in data set [4] (drug recipients) is reported as “No clinical or biochemical toxicity was observed”. The “levels of antibody to influenza” value in data set [4] (six weeks post-vaccine, subcutaneously twice weekly) was “higher levels of antibody to influenza than controls”. Further, in [5], the clinical parameters result is reported as “no improvement” and the “viral DNA replication” value is reported as “suppressed viral DNA replication”. Further, the “patients with reduced levels of serum HBV DNA” value in data set [6] (pooled THNα1 (5 patients) and TF-5 (2 patients)) is reported as 6 of the 7. Moreover, the “patients initially positive for serum HBsAg who subsequently cleared this antigen” value in data set [6] (pooled THNα1 and TF-5 patients) is given as 5 of 6. Further, the “serum ALT” value in data set [6] (THNα1 (5 patients) or TF-5 (2 patients)) is on record as “marked decrease”. In addition, in data set [7] (after radiotherapy), the immune function entry was “some restoration of radiation-suppressed immune function”. In addition, the “relapse-free survival and overall survival” value in data set [7] (both THNα1 treatment groups versus placebo group) was “greater”. For the same compound, the T-cell numbers result in data set [7] (human, in vivo) is on record as “no increase”.

For interferon α, the “mean serum ALT and histological features of the liver” value in data set [8] (2 MU subcutaneously three times weekly for six months) was “improved significantly”. For the same compound, the “complete response (decline in mean serum ALT to the normal range during therapy)” value in [8] (2 MU subcutaneously three times weekly for six months, ten of twenty-one patients) was 48%. The “further patients with decrease in mean ALT of more than 50%” value in data set [8] (2 MU three times weekly for six months) is given as “three”. The “patients still with normal serum ALT values” in data set [8] (six to twelve months after discontinuation of therapy, two patients) is 10%. Also, the “relapse within six months after the completion of treatment” value is on record as 44% in data set [9] (1 MU) and 51% in data set [9] (3 MU). The “serum ALT response” value in data set [9] (1 MU three times weekly for 24 weeks, nine of sixteen patients) is reported as 56%. The liver histology result in [9] (3 MU) was “histologic improvement”. The “serum ALT level became completely normal” value in [9] (3 MU three times weekly for 24 weeks, 22 of the 26 patients who responded) is reported as 85%. The “mean serum ALT levels during the 24 week treatment period” value in data set [10] (1 MU three times a week) was “decreased”. Further, the “proportion of patients with normal ALT levels” value is 45% in data set [10] (at 24 weeks, 1 MU group); 39% in data set [10] (at 24 weeks, 3 MU group); 20% in [10] (at week 48, 1 MU group); 28% in data set [10] (at week 48, 3 MU group). The “repeat liver biopsy, severity of histological changes” value in data set [10] (higher dose group (3 MU)) is listed as “significant decrease in the severity of histological changes”. The “relapse in disease activity when interferon was stopped” value in data set [10] (responders) is listed as “approximately half of the responders”.
